Values quoted from earlier work in patent publication US20050065129A1, “2-Alkylidene-19-nor-vitamin D derivatives for the treatment of frailty, muscle damage or sarcopenia” (Pfizer Inc, priority 2003, published 2005).

Tests used:
[1] = system: Intestinal Calcium Transport; conditions: chronic 7 days, 130 and/or 260 pmol/day, rats
[2] = system: Serum Calcium (Bone Calcium Mobilization); conditions: chronic 7 days, rats; for bone calcium mobilization activity (in words): 130 and 260 pmol/day

SMILES	intestinal calcium transport activity (in words) [1]	bone calcium mobilization activity (in words) [2]	bone calcium mobilization (serum calcium) activity relative to 1,25-(OH)2D3 (native hormone) ([2]; estimate)
C=C1/C(=C\C=C2/CCC[C@]3(C)[C@@H]([C@H](C)CCCC(C)(C)O)CC[C@@H]23)C[C@@H](O)C[C@@H]1O [1,25-(OH)2D3, 1,25-dihydroxyvitamin D3, reference compound]	expected elevation		
C=C1[C@H](O)CC(=C/C=C2\CCC[C@]3(C)[C@@H]([C@@H](C)CCCC(C)(C)O)CC[C@@H]23)C[C@H]1O [2-Methylene-19-Nor-20S-1,25-(OH)2D3, (20S)-1α,25-dihydroxy-2-methylene-19-nor-vitamin D3]	no significant change	most potent compound tested	
C=C1[C@H](O)CC(=C/C=C2\CCC[C@]3(C)[C@@H]([C@H](C)CCCC(C)(C)O)CC[C@@H]23)C[C@H]1O [2-Methylene-19-Nor-1,25-(OH)2D3, 1α,25-dihydroxy-2-methylene-19-nor-vitamin D3]	no intestinal calcium transport activity	extremely strong bone calcium mobilization	10-100 times
